# Structures can show the parent of a compound that is named as a salt.
# Biological target: T1, human α-thrombin (Homo sapiens, UniProt P00734)
# T1 construct: Purified human α-thrombin; purchased Enzyme Research Laboratories (South Bend, Ind.)
# Assay: In vitro inhibition of purified enzymes: Ki determination, thrombin (hydrolysis of N-succinyl-Ala-Ala-Pro-Arg-p-nitroanilide)
# Assay type: biochemical
# Conditions: purified human α-thrombin 0.5 nM, 50 mM HEPES, 200 mM NaCl, pH 7.5, 37° C., 4.3% DMSO
# Source text: Reagents: All buffer salts were obtained from Sigma Chemical Company (St. Louis, Mo.), and were of the highest purity avalable. The enzyme substrates, N-benzoyl-Phe—Val—Arg-p-nitroanilide (Sigma B7632), N-benzoyl-Ile—Glu—Gly—Arg-p-nitroanilide hydrochloride (Sigma B2291), N-p-Tosyl-Gly—Pro—Lys-p-nitroanilide (Sigma T6140), N-succinyl-Ala—Ala—Pro—Phe-p-nitroanilide (Sigma S7388) and N-CBZ-Val—Gly—Arg-p-nitroanilide (Sigma C7271) were obtained from Sigma.
# Human α-thrombin, human factor Xa and human plasmin were obtained from Enzyme Research Laboratories (South Bend, Ind.). Bovine α-chymotrypsin (Sigma C4129), bovine trypsin (Sigma T8642) and human kidney cell urokinase (Sigma U5004) were obtained from Sigma. Human leukocyte elastase was obtained from Elastin Products (Pacific, Mo.).
# Ki Determinations: All assays are based on the ability of the test compound to inhibit the enzyme catalyzed hydrolysis of a peptide-p-nitroanililide substrate. […] The final concentrations for each of the substrates is listed below. […] Dilutions are prepared in DMSO yielding 8 final concentrations encompassing a 200 fold concentration range. Enzyme solutions are prepared at the concentrations listed below in assay buffer.
# Data corresponding to less than 10% of the total substrate hydrolysis were used in the calculations. The ratio of the velocity (rate of change in absorbance as a function of time) for a sample containing no test compound is divided by the velocity of a sample containing test compound, and is plotted as a function of test compound concentration. The data are fit to a linear regression, and the value of the slope of the line calculated. The inverse of the slope is the experimentally determined K value.
# Thrombin: Thrombin activity was assessed as the ability to hydrolyze the substrate N-succinyl-Ala—Ala—Pro—Arg-p-nitroanilide. […] Final DMSO concentration was 4.3%. […] Final reagent concentrations were: [thrombin]=0.5 nM, [substrate N-succinyl-Ala—Ala—Pro—Arg-p-nitroanilide]=32 mM.
row,Ki,Structure (SMILES)
1,46 nM,"Cc1cnc(NCCc2ccccc2)c(=O)n1CC(=O)NCCONC(=N)N [Example 1, 1-{N-[2-(amidinoaminooxy)ethyl]amino}carbonylmethyl-6-methyl-3-(phenethylamino)-pyrazinone trifluoroacetate]"
2,330 nM,"Cc1c(Cl)nc(NCCc2ccccc2)c(=O)n1CC(=O)NCCONC(=N)N [Example 2, 1-{N-[2-(amidinoaminooxy)ethyl]amino}carbonylmethyl-5-chloro-6-methyl-3-(phenethylamino)-pyrazinone trifluoroacetate]"
3,85 nM,"Cc1c(Cl)nc(NCC(c2ccccc2)c2ccccc2)c(=O)n1CC(=O)NCCONC(=N)N [Example 4, 1-{N-[2-(amidinoaminooxy)ethyl]amino}carbonylmethyl-5-chloro-6-methyl-3-(2,2-diphenylethylamino)-pyrazinone trifluoroacetate]"
4,20 nM,"Cc1ccc(CCNc2ncc(C)n(CC(=O)NCCONC(=N)N)c2=O)cc1 [Example 5, 1-{N-[2-(amidinoaminooxy)ethyl]amino}carbonylmethyl-6-methyl-3-(4-methylphenethylamino)-pyrazinone trifluoroacetate]"

# — patent US6514978B2, “Thromboresistant materials incorporating pyrazinone protease inhibitors” (3-Dimensional Pharmaceuticals, Inc., priority 1998, dated 2003)
